The results in this text go back to PubChem BioAssay (NCI).

Common to all, as to test: NCI tumour cell line growth inhibition, 48 h
Experiment [1] relates to ACHN renal.
The test system of experiment [2] is HCC-2998 colon.
Experiment [3] has as its system HT29 colon.
The subject of experiment [4] is KM12 colon.
Experiment [5] concerns MOLT-4 leukemia.
Experiment [6] deals with NCI-H23 lung.
Experiment [7] has as its system SF-539 CNS.
Experiment [8] has as its system SK-OV-3 ovarian.
Experiment [9] deals with HOP-92 NSCLC.

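Briefly, cells in 96-well plates were exposed to five compound concentrations for 48 h, and endpoints were estimated by linear interpolation. GI50 marks 50% less growth. Definition used: TGI = concentration required for complete inhibition of growth.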 A value given as a limit tells only on which side of the number the result lay.

`COC(=O)C1=CC2OC13CC1CCC3(C2=O)C1(C)C` (centres undefined): the TGI in experiment [1] turned out to be 21.2 µM; in experiment [2] it was 27.8 µM; in experiment [3], 27.7 µM; in experiment [4] it was 30.6 µM; in [5], 33.7 µM; in experiment [6], 32.1 µM. The TGI worked out at 27.3 µM in experiment [7] and 38.1 µM in experiment [8].

With `CCC(=C(c1ccc(OCc2ccccc2)cc1)c1ccc(OCc2ccccc2)cc1)c1ccc(OC)cc1`, the TGI in experiment [1], in experiment [2], in experiment [9], in experiment [3], in experiment [4] and in [5] was more than 100 µM each time. Also, the TGI in experiment [6], in experiment [7] and in [8] was more than 100 µM each time.

For `CCOC(=O)C1=C(C)N(NC(=O)c2ccccc2)C2(O)CCCC12C(=O)OCC` (centres undefined), the TGI in experiment [1], in experiment [2], in experiment [3], in experiment [4], in experiment [5] and in experiment [7] was more than 100 µM throughout. The same compound returned a TGI in experiment [8] of more than 100 µM.

Consider `Cc1ccc(S(=O)(=O)N/N=C(\C(=O)Nc2cccc([N+](=O)[O-])c2)c2nc3ccc([N+](=O)[O-])cc3[nH]c2=O)cc1`, for which the TGI was more than 100 µM in [1]; 69.9 µM in experiment [2]; more than 100 µM in [9]; more than 100 µM in [3]; more than 100 µM in experiment [4]; more than 100 µM in [5]. Further, the TGI in experiment [6], in experiment [7] and in experiment [8] was more than 100 µM throughout.

`COC(=O)C1C(=O)O[C@@H](c2ccc(OC)cc2OC)C1C(=O)OC` (some centres undefined): the TGI in experiment [1], in experiment [2], in experiment [9], in experiment [3], in experiment [4] and in experiment [5] was more than 100 µM in each case. For the same compound, the TGI in [6], in experiment [7] and in experiment [8] was more than 100 µM throughout.

For `Clc1ccc2nc(CCSCCc3nc4ccc(Cl)cc4[nH]3)[nH]c2c1`, the TGI turned out to be 11.4 µM in experiment [1]; 31.7 µM in [2]; 30.6 µM in experiment [9]; 24.1 µM in experiment [3]; 29.7 µM in experiment [4]; 18.1 µM in experiment [5]. Also, the TGI in experiment [6] came out at 31.3 µM; in experiment [7] it was 32.7 µM; in experiment [8], 34.2 µM.

As for `Cn1c2cccc3nnc4cccc(c4c32)n1C`, the TGI in experiment [1], in [2], in [9], in experiment [3], in experiment [4] and in experiment [5] was more than 100 µM each time. In [7], this compound came in with a TGI of more than 100 µM.

`O=C(CC1(O)C(=O)Nc2c(Cl)cc(Cl)cc21)c1ccc2ccccc2c1` (centres undefined): the TGI in experiment [1] came to 28.7 µM; in experiment [9], 36.2 µM; in experiment [3] it was 18.5 µM; in experiment [4] it was 18.8 µM; in experiment [5] it was 27.8 µM; in [6], 22.3 µM. In addition, the TGI in experiment [7] is 21 µM; in experiment [8] it was 24.6 µM.

With `Cc1ccc2[nH]c(=O)c(C(C#N)c3ccccc3)nc2c1` (centres undefined), the TGI was more than 100 µM in [1]; more than 100 µM in experiment [2]; 93.8 µM in [9]; more than 100 µM in experiment [3]; more than 100 µM in [4]; more than 100 µM in experiment [5]. In addition, the TGI in experiment [6], in experiment [7] and in experiment [8] was more than 100 µM in each case.

For the compound `CCC[CH2][Sn]([CH2]CCC)([S]C1=NCCS1)[S]C1=NCCS1`, the GI50 in experiment [1] was 0.368 µM; in [2], 0.654 µM; in experiment [9], 0.227 µM; in [3], 1.07 µM; in experiment [4] it was 1.02 µM; in [5], 0.157 µM. The GI50 is 0.17 µM in experiment [6], 0.164 µM in experiment [7] and 1.9 µM in experiment [8]. The TGI amounted to 1.31 µM in experiment [1]; 1.94 µM in experiment [2]; 0.529 µM in experiment [9]; 2.58 µM in experiment [3]; 2.28 µM in experiment [4]; 0.732 µM in experiment [5]. Besides, the TGI in experiment [6] came out at 0.67 µM; in [7], 0.449 µM; in experiment [8] it was 3.31 µM.

On to `O=C1c2ccccc2C(=O)c2nc(-c3ccccc3)c(-c3ccccc3)nc21`, for which the TGI in experiment [1], in experiment [2], in [9], in [3], in [4] and in [5] was more than 100 µM throughout. Further, the TGI in experiment [6], in experiment [7] and in experiment [8] was more than 100 µM each time.

As for `O=C(C=Nc1ccccc1C(=O)[O-])c1cccs1.O=C(C=Nc1ccccc1C(=O)[O-])c1cccs1.[Cu+2]`, the TGI in experiment [1], in experiment [2], in experiment [9], in experiment [3], in experiment [4] and in experiment [5] was more than 100 µM in each case. Besides, the TGI in [6] and in [8] was more than 100 µM in each case.

Regarding `C=CCN(N=O)C(=O)N(CCC)CCCCC(NC(C)=O)C(=O)NCc1ccccc1` (centres undefined), the TGI in [1] was more than 100 µM; in [9], more than 100 µM; in [3] it was 83.6 µM; in experiment [4], more than 100 µM; in experiment [5] it was more than 100 µM; in experiment [6] it was more than 100 µM. Also, the TGI in experiment [7] and in experiment [8] was more than 100 µM each time.

As for `COc1ccc2c(c1)[n+]([O-])c(-c1nc3ccccc3s1)c(N)[n+]2[O-]`, the TGI in [1], in experiment [9], in experiment [3], in experiment [4], in experiment [5] and in experiment [6] was more than 100 µM throughout. Further, the TGI in experiment [7] and in experiment [8] was more than 100 µM each time.

As to `CCOC(=O)/C=C1\Nc2ccccc2-n2nnnc21`, the TGI in [1], in experiment [2], in experiment [9], in experiment [3], in experiment [4] and in experiment [5] was more than 100 µM each time. For the same compound, the TGI in [6], in experiment [7] and in experiment [8] was more than 100 µM in each case.

In the case of `Cc1ccc(C2=NO[C@@H]3C(=O)N(c4ccc(Cc5ccc(N6C(=O)[C@H]7C(c8ccc(C)cc8)=NO[C@H]7C6=O)cc5)cc4)C(=O)[C@H]23)cc1`, the TGI in experiment [1], in [2], in experiment [9], in experiment [3], in [4] and in experiment [6] was more than 100 µM in each case. Moreover, the TGI in experiment [7] and in [8] was more than 100 µM throughout.

`CSC(=S)NNC(=O)c1ccncc1`: the TGI in [1] is 36.2 µM; in experiment [2], 38.1 µM; in experiment [9] it was 60.8 µM; in experiment [3], 37.8 µM; in experiment [4], more than 100 µM; in experiment [5], 55.6 µM. Further, the TGI was 33.2 µM in [6], 48.9 µM in [7] and 96.2 µM in experiment [8].

Regarding `CC(=O)Nc1ccc(/C=C/C(=O)c2sc(C(N)=S)nc2C)cc1`, the TGI in experiment [2], in [9], in [3], in experiment [4], in experiment [5] and in [6] was more than 100 µM each time. In addition, the TGI in experiment [7] and in [8] was more than 100 µM each time.

`CCCCCCCCCC(=O)OCC1OC(n2cc(F)c(=O)[nH]c2=O)C(N)C(OC(=O)CCCCCCCCC)C1O` (centres undefined): the TGI in experiment [1] is more than 100 µM; in experiment [2], 33.3 µM; in [9], 37 µM; in experiment [3], 35.8 µM; in [4], 41.2 µM; in experiment [5], 32.7 µM. Moreover, the TGI in [6] is 36 µM; in experiment [7], 33.7 µM; in experiment [8], more than 100 µM.

Regarding `COc1ccccc1NC(=O)C1=C(C)NC(C)=C(C(=O)Nc2ccccc2OC)C1c1ccccc1OC`, the TGI in experiment [1], in experiment [2], in experiment [9], in [3], in experiment [4] and in experiment [5] was more than 100 µM in each case. Further, the TGI in experiment [6], in experiment [7] and in experiment [8] was more than 100 µM each time.

Take `CC1C(=O)N(C)C2(CO)C(=O)O[C@H](C)C12O` (some centres undefined): the TGI in experiment [2], in [3], in experiment [4], in [5], in [6] and in [7] was more than 100 µM throughout. The compound further registered a TGI in experiment [8] of more than 100 µM.

On to `O=C(CC(=O)C(F)(F)F)c1csc2ccccc12`, for which the TGI in experiment [1] is more than 100 µM; in [2], more than 100 µM; in experiment [4], more than 100 µM; in [5], 72.3 µM; in experiment [6], more than 100 µM; in experiment [7] it was more than 100 µM. The TGI in [8] worked out at 63.6 µM.

Regarding `COC(=O)C1=CC2OC1(C)C1(CC1)C2=O` (centres undefined), the TGI in experiment [1] amounted to 34.4 µM; in [2], 34.2 µM; in experiment [3], 25.5 µM; in experiment [4], 43.9 µM; in experiment [5] it was 27.2 µM; in experiment [6], 49.7 µM. The figures for the TGI in experiment [7] and in experiment [8] were 32.1 µM and more than 100 µM, respectively.

In the case of `COc1ccc(OC)c2cc(C3(C)SCCCS3)ccc12`, the TGI in experiment [1], in [2], in [3], in experiment [4], in [5] and in experiment [6] was more than 100 µM in each case. Further, the TGI in experiment [7] and in experiment [8] was more than 100 µM in each case.

With `Cc1c(CCl)c(=O)oc2c(C)c3occ(CCl)c(=O)c3cc12`, the TGI in experiment [1] was more than 100 µM; in experiment [2] it was more than 100 µM; in experiment [4], more than 100 µM; in experiment [5] it was 22.8 µM; in experiment [6], 83.7 µM; in experiment [7], 44.9 µM. This compound yielded a TGI in [8] of more than 100 µM.

Consider `O=C(O)/C(Cl)=C(\Cl)C(=O)Nc1ccccc1`, for which the TGI in experiment [1], in experiment [2], in [9], in [3], in experiment [4] and in experiment [5] was more than 100 µM in each case. The TGI in [6], in experiment [7] and in experiment [8] was more than 100 µM in each case.

For the compound `CC1C2=CC=C(O2)C(C)(C)C2=CC=C(O2)C(C)(C)C2=CC=C(O2)C(C)(C)C2=CC=C1O2`, the TGI in experiment [1], in experiment [2], in experiment [9], in [3], in experiment [4] and in [5] was more than 100 µM throughout. Moreover, the TGI in experiment [6], in experiment [7] and in [8] was more than 100 µM in each case.

For the compound `Cc1c(Cl)ccc2c1NC(=O)C2(O)C1Cc2ccccc2C1=O` (centres undefined), the TGI in [1], in experiment [2], in experiment [9], in experiment [3], in experiment [4] and in experiment [5] was more than 100 µM in each case. Further, the TGI in [6], in [7] and in experiment [8] was more than 100 µM throughout.

Take `Cc1cc(C)n(-c2c(O)ccc(O)c2-n2nc(C)cc2C)n1`: the TGI in experiment [1], in [2], in experiment [9], in experiment [3], in [4] and in [5] was more than 100 µM in each case. In addition, the TGI in experiment [6], in [7] and in experiment [8] was more than 100 µM each time.

In the case of `Nc1nc(N)c(-c2ccc(Cl)cc2)c(CCC(=O)Nc2cccc(C(F)(F)F)c2)n1`, the TGI in [1], in [2], in experiment [3], in experiment [4], in experiment [5] and in [6] was more than 100 µM in each case. Also, the TGI in [7] and in [8] was more than 100 µM throughout.
